The results in this text go back to patent US20240279202A1 (NURIX THERAPEUTICS, INC., priority 2021, published 2024).

One data set concerns the target T1, ITK (Homo sapiens, UniProt Q08881).
T1 sequence (Q08881 1-620): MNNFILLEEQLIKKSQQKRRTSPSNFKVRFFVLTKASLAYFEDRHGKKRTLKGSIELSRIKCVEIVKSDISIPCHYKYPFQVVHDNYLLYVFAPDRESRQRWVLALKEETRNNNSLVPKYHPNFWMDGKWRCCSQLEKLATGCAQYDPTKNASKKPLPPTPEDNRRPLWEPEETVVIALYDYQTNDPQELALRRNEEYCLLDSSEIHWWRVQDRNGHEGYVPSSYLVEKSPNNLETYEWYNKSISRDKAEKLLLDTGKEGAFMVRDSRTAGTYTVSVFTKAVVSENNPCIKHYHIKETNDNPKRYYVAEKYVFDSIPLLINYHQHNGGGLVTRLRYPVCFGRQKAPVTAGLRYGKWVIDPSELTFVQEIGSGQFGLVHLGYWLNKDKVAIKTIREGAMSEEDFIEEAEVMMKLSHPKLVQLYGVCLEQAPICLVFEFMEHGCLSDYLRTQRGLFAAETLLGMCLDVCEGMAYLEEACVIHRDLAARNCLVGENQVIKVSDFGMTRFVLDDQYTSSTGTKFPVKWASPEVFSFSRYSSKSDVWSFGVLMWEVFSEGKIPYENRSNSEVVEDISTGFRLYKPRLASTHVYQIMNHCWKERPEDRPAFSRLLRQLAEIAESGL
The experiment in a line: ITK degradation HiBiT assay. Format: cell-based. Set-up: expressed in transfected cells; host or cells: Molt4 (ATCC CRL-1552), monoclonal clone 1C10, engineered to carry the HiBiT tag. The settings on record: 4 hrs; for DC50: C-terminal HiBiT-tagged Molt4 cells; for Dmax: MOLT-4, C-terminal HiBiT-tagged Molt4 cells. A digest of the protocol:
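C-terminal HiBiT-tagged Molt4 cells (clone 1C10) treated 4 h at 32° C with an 11-point, 5-fold compound dilution series (0.5% DMSO). HiBiT lytic detection with LgBiT then luminescence read; % ITK remaining versus concentration fit by four-parameter variable-slope model to give DC50 and Dmax.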
(In general: With HiBiT, luminescence reflects the tagged protein that the partner subunit can reach.)

Data set [1] can be described thus: Mouse PK analysis (blood/plasma concentration after oral administration). Format: in vivo. The note with it: mouse; mice, oral, plasma. A digest of the protocol:
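Mice were dosed by oral gavage at 90 mg/kg with blood sampled at 1, 2 and 6 h; a second study used oral dosing with plasma taken at 6 or 24 h. Plasma levels were measured by LC/MS/MS (acetonitrile precipitation, internal-standard curve, positive ESI MRM), and Cmax, Tmax and AUClast were derived by noncompartmental analysis.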

For orientation: DC50 means the midpoint of the concentration-degradation curve. High values mean degradation only at high concentration, low ones degradation at low concentration. What is called Dmax is the largest share of the target that was removed. For orientation: AUC(0-t) means the area under the concentration-time curve up to a stated or last time point. For orientation: Cmax means the highest concentration seen after dosing. For orientation: Tmax means the time at which the peak concentration occurs. Regarding `C[C@@H](C(=O)N(C)c1ccc2cc(-c3n[nH]c4c3C[C@@H]3C(F)(F)[C@]3(C)C4)[nH]c2c1)N1CCN(CC2CCN(c3cccc4c3n(C)c(=O)n4C3CCC(=O)NC3=O)CC2)CC1` (stereo partly drawn) [Compound 65, (2S)—N-(2-((4aS,5aR)-5,5-difluoro-5a-methyl-1,4,4a,5,5a,6-hexahydrocyclopropa[f]indazol-3-yl)-1H-indol-6-yl)-2-(4-((1-(1-(2,6-dioxopiperidin-3-yl)-3-methyl-2-oxo-2,3-dihydro-1H-benzo[d]imidazol-4-yl)piperidin-4-yl)methyl)piperazin-1-yl)-N-methylpropanamide], on ITK, the half-maximal degradation concentration (DC50) was determined as 0.35 nM and the Dmax worked out at 80%. Besides, in data set [1], the AUC(0-t) was 1.38 µM·h, the highest concentration (Cmax) was determined as 405 nM and the Tmax came out at 6 h.

At ITK, `C[C@@H](C(=O)N(C)c1ccc2cc(-c3n[nH]c4c3C[C@@H]3C(F)(F)[C@]3(C)C4)[nH]c2c1)N1CCN(CC2CCN(c3ccc(C(=O)NC4CCC(=O)NC4=O)nc3)CC2)CC1` (stereo partly drawn) [Compound 66, 5-(4-((4-((S)-1-((2-((4aS,5aR)-5,5-difluoro-5a-methyl-1,4,4a,5,5a,6-hexahydrocyclopropa[f]indazol-3-yl)-1H-indol-6-yl)(methyl)amino)-1-oxopropan-2-yl)piperazin-1-yl)methyl)piperidin-1-yl)-N-(2,6-dioxopiperidin-3-yl)picolinamide] gave a DC50 of 0.55 nM and a Dmax of 71%. Moreover, in data set [1], the AUC(0-t) was 1.74 µM·h, the concentration peaked (Cmax) at 526 nM and the Tmax came out at 4 h.

On to `CN(C(=O)CCC1CCN(c2ccc(C(=O)NC3CCC(=O)NC3=O)nc2)C1)c1ccc2cc(-c3n[nH]c4c3C[C@@H]3C(F)(F)[C@]3(C)C4)[nH]c2c1` (stereo partly drawn) [Compound 69, 5-(3-(3-((2-((4aS,5aR)-5,5-difluoro-5a-methyl-1,4,4a,5,5a,6-hexahydrocyclopropa[f]indazol-3-yl)-1H-indol-6-yl)(methyl)amino)-3-oxopropyl)pyrrolidin-1-yl)-N-(2,6-dioxopiperidin-3-yl)picolinamide], for which, at ITK, the Dmax was 42%. In data set [1], the AUC(0-t) was 1.26 µM·h, the Cmax was found to be 283 nM and the Tmax was 3.5 h.

In the case of `CN(C(=O)CN1CCC2(CC1)CCN(c1ccc3c(c1)C(=O)N(C1CCC(=O)NC1=O)C3=O)C2)c1ccc2cc(-c3n[nH]c4c3C[C@@H]3C(F)(F)[C@]3(C)C4)[nH]c2c1` (stereo partly drawn) [Compound 72, N-(2-((4aS,5aR)-5,5-difluoro-5a-methyl-1,4,4a,5,5a,6-hexahydrocyclopropa[f]indazol-3-yl)-1H-indol-6-yl)-2-(2-(2-(2,6-dioxopiperidin-3-yl)-1,3-dioxoisoindolin-5-yl)-2,8-diazaspiro[4.5]decan-8-yl)-N-methylacetamide], at ITK, it took 0.12 nM to reach half-maximal degradation (DC50) and the Dmax came out at 86%. In addition, in data set [1], the area under the curve AUC(0-t) was 0.02 µM·h, the highest level (Cmax) was 9 nM and the Tmax is 4 h.
